Test results from patent US20180256623A1, “COMPOSITIONS AND METHOD FOR REGULATING ADIPOSE TISSUE LIPOLYSIS, INSULIN-RESISTANCE, AND HYPERGLYCEMIA” (University of Virginia Patent Foundation, priority 2015, published 2018).

Columns and labels:
lipoprotein lipase = target: T1, lipoprotein lipase (Homo sapiens, UniProt P06858); settings: cited from earlier work
T1 sequence (P06858 28-475): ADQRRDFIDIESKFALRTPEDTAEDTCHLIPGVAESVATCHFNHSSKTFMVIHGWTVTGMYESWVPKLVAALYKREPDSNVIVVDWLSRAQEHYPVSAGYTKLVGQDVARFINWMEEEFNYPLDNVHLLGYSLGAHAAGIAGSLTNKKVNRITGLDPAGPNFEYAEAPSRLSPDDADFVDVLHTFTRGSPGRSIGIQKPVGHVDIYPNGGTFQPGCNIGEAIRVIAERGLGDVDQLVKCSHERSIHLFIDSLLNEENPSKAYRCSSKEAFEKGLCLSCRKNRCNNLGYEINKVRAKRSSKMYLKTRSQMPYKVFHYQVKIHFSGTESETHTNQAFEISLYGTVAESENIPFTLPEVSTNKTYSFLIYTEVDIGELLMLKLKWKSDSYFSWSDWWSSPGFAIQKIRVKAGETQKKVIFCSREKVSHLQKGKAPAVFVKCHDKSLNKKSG

PNPLA6 = target: T2, PNPLA6 (Homo sapiens, UniProt Q8IY17); settings: cited from earlier work
T2 sequence (Q8IY17 1-1375): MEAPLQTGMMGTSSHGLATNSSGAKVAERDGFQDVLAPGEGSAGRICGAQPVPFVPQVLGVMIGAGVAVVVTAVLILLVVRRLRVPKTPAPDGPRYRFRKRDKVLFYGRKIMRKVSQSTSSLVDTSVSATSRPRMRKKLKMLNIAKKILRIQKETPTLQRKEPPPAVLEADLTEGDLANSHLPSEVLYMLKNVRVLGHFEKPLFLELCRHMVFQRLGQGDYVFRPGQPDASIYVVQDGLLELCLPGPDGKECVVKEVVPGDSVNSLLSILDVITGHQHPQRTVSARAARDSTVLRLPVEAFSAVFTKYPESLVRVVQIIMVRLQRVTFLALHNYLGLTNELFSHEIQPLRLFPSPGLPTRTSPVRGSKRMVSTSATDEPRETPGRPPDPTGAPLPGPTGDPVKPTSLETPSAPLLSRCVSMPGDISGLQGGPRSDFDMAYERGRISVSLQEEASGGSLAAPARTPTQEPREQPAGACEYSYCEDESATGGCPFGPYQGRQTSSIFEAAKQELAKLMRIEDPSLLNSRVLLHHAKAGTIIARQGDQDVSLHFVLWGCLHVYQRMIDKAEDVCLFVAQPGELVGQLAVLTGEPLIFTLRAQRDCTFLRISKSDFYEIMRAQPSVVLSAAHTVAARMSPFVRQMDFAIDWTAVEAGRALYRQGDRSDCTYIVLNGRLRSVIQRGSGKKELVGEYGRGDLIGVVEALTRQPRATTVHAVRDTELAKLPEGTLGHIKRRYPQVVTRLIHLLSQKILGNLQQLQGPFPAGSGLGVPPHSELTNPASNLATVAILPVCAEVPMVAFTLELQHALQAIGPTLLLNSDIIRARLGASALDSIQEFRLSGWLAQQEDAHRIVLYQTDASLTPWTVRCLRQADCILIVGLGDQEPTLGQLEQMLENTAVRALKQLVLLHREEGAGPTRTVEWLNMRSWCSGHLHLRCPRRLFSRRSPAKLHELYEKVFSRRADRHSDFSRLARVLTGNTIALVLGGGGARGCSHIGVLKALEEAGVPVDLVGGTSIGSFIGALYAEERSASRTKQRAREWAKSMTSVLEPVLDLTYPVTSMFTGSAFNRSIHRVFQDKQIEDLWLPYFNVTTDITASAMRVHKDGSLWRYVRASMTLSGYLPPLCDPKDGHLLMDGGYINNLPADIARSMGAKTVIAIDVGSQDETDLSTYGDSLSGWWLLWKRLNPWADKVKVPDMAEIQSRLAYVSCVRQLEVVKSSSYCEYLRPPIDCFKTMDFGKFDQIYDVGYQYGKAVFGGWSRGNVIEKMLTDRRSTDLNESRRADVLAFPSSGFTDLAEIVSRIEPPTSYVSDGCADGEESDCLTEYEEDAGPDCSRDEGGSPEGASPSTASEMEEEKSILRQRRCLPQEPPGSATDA

mice = assay: Rodent hemorrhage and trauma (surgery) model; format: in vivo
Text: The acute changes in blood glucose that occur in a T1DM model were invesitaged. Streptozotocin (STZ)-treated mice were subjected to a hemorrhage protocol to mimic surgical induction of the neuroendocrine stress response in humans (FIG. 1). Adipose tissue lipolysis was controlled via the addition of the small molecule inhibitor Atglistatin. The extent of glycemic excursions and ketogenesis was followed.
Separate rodent models of diabetes were employed to investigate the unique co-morbidities associated with T1DM. For the T1DM model, C57BL/6J mice were subjected to low dose injection of streptozotocin (50 mg/kg) at 6-8 weeks of age (see the website for the Diabetic Complications Consortium).
The protocol for modeling surgery-induced stress has been adapted from several sources and is available to an art worker. Although few human patients undergo extensive hemorrhage during elective surgeries, this rodent protocol is a consistent and reproducible experimental model for surgical stress in humans. Briefly, on the day of the surgery 10-12 week old male mice were fasted for six hours prior to surgery and pre-treated with or without lmg/kg body weight of Atglistatin at four hours prior to surgery to prevent adipose tissue lipolysis. Mice were then anesthetized by continuous inhalation of isoflurane and subjected to a 2-cm ventral midline laparotomy. The abdomen will then be sutured, a catheter was placed in the right femoral artery and mice were hemorrhaged from the left femoral artery to a mean arterial pressure (MAP) of 35-40 mm Hg (T0′). Blood glucose and ketone levels were monitored during the surgery. The mice were followed until 30′ post-hemorrhage and were maintained continuously under anesthesia. At the termination of the experiment, blood was collected to measure serum catecholamines, insulin, cytokines, ketones and glycerol levels, among other possible metabolic parameters.
Rodent hemorrhage and trauma model—To activate the adaptive stress response and emulate the acute hyperglycemia and insulin resistance that develops after surgery, trauma and hemorrhage mice as previously described will be used. Briefly, 10-12 week old male mice are fasted for 4-6 hours prior to surgery and 4 hours before surgery, Atglistatin (1 mg/kg) or vehicle will be injected intraperitoneally. Mice are anesthetized by continuous inhalation of 1.5% isoflurane and 98.5% 02 throughout all procedures. After the mice are shaved, surgery will begin with a 2-cm ventral midline laparotomy. The abdomen is then sutured and the wounds bathed with 1% lidocaine to reduce pain. A catheter is placed in the right femoral artery for monitoring mean arterial pressure (MAP). To replicate the blood loss during a surgery, mice are hemorrhaged from the left femoral artery to an MAP of 35-40 mmHg over a 10-minute period. Once the MAP reaches 35-40 mmHg, the […]. […] Control mice are subjected to trauma alone. Mice are subjected to anesthesia, laparotomy, and catheterization. […] Blood glucose levels are monitored during the surgery.

CN(C)C(=O)Nc1cccc(-c2ccc(N(C)C)cc2)c1 [Atglistatin, N′-[4′-(dimethylamino) [1,1′-biphenyl]-3-yl]-N,N-dimethyl-urea]
inhibition of lipoprotein lipase (lipoprotein lipase): does not inhibit
inhibition of PNPLA6 (PNPLA6): does not inhibit
adipose tissue lipolysis as assessed by serum glycerol levels (mice; control mice, pre-treated with lmg/kg body weight four hours prior to surgery, FIG. 2B): attenuating adipose tissue lipolysis
circulating glycerol (lipolysis) (mice; mice, Atglistatin 1 mg/kg intraperitoneally 4 hours before surgery): reduction in circulating glycerol
hemorrhage-induced hyperglycemia (mice; mice, Atglistatin 1 mg/kg intraperitoneally 4 hours before surgery, FIG. 3A): effective in preventing hemorrhage-induced hyperglycemia
insulin resistance in adipose tissue and skeletal muscle (mice; mice, Atglistatin 1 mg/kg intraperitoneally 4 hours before surgery, FIG. 3B): attenuation of insulin resistance in adipose tissue and skeletal muscle
stress-induced lipolysis (mice; pharmacological inhibition of ATGL): largely blocks stress-induced lipolysis
